In series [1] the target is T1, androgen receptor (AR) splicing variant AR-v7 (Homo sapiens, UniProt P10275).
T1 construct: The degradation activity of compounds on AR-v7 in 22RV1 cells; host or cells: 22RV1 cells
T1 sequence (P10275 1-644 isoform P10275-3): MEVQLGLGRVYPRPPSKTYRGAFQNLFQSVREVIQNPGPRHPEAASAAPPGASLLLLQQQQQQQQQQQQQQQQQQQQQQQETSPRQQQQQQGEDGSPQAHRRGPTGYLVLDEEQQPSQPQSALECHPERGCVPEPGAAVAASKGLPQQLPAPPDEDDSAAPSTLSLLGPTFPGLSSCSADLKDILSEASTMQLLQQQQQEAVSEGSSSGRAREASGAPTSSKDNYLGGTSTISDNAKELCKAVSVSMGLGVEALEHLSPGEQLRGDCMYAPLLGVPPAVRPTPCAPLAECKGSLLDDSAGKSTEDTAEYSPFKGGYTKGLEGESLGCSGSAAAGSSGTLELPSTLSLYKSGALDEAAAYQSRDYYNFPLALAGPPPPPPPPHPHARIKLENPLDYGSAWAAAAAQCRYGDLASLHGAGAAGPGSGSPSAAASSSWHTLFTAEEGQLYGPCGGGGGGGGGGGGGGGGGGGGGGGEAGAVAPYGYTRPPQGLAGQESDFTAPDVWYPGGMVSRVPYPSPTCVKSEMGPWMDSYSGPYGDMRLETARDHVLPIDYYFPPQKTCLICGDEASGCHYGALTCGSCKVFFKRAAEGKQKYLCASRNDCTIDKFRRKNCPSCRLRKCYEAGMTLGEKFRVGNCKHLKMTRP
Put plainly: Degradation activity on androgen receptor splicing variant AR-v7 in 22RV1 cells (ELISA). The series is classed as cell-based. Particulars: AR-v7 degradation in 22RV1 cells, 48 h, class symbols. (ELISA stands for enzyme-linked immunosorbent assay.)

The nature of series [2]: Pharmacokinetics in mice (plasma exposure after oral administration). Particulars: mouse, ICR mice, oral (i.g.) 3 mg/kg, read-out: After oral administration of 3 mg/kg, mouse plasma exposure AUCinf. The series is classed as in vivo.
A further series deals with 22RV1 cells. The conditions noted are these: Homo sapiens, 22Rv1, 144 h, read-out: 22RV1 IC50 (nM), 22RV1 cells, 6 days culture, CCK-8, OD 450 nm.

Where only a bound is given, the exact number is not on record here.

Consider `CC(C)(c1ccc(Oc2cc(F)cnc2-n2ccnn2)cc1)c1ccc(O[C@H]2C[C@H](Nc3ccc4c(c3)C(=O)N(C3CCC(=O)NC3=O)C4=O)C2)cc1` (stereo partly drawn) [Example 516], for which the DC50 (commonly the concentration at which degradation of the target reaches its halfway point) in series [1] is less than 10 nM. In addition, in series [2], the AUC(0-inf) is 1000 to 5000 ng·h/mL. In addition, the IC50 – broadly, the concentration that inhibits the measured activity by half – in the series on 22RV1 cells came to 10 nM.

For the compound `CC(O)c1ncc(Oc2ccc(C3(c4ccc(O[C@H]5C[C@H](Nc6ccc7c(c6)C(=O)N(C6CCC(=O)NC6=O)C7=O)C5)cc4)CCCCC3)cc2)cn1` (stereo partly drawn) [Example 528], in series [1], the half-maximal degradation concentration (DC50) is less than 10 nM. For the same compound, the AUC(0-inf) in series [2] lay within 5000 to 30000 ng·h/mL. The 50% inhibitory concentration (IC50) with 22RV1 cells was 2 nM.

As to `CCC(CC)(c1ccc(Oc2cnc(-c3noc(C)n3)nc2)cc1)c1ccc(O[C@H]2C[C@@H](Nc3ccc4c(c3)C(=O)N(C3CCC(=O)NC3=O)C4=O)C2)cc1` (stereo partly drawn) [Example 553], the DC50 in series [1] was less than 10 nM. Further, the AUC(0-inf) in series [2] fell in the range of 5000 to 30000 ng·h/mL. For the same compound, the IC50 with 22RV1 cells stood at 15 nM.

Consider `CC(C)(c1ccc(Oc2cnc(-n3ccnn3)cn2)cc1)c1ccc(O[C@H]2C[C@H](Nc3ccc4c(c3)C(=O)N(C3CCC(=O)NC3=O)C4=O)C2)cc1` (stereo partly drawn) [Example 584], for which, in series [1], the DC50 was less than 10 nM. Also, the AUC(0-inf) in series [2] is 1000 to 5000 ng·h/mL. In addition, the IC50 with 22RV1 cells was found to be 4 nM.

`Cc1nc(-c2cc(Oc3ccc(C(C)(C)c4ccc(O[C@H]5C[C@H](Nc6ccc7c(c6)C(=O)N(C6CCC(=O)NC6=O)C7=O)C5)cc4)cc3)ncn2)no1` (stereo partly drawn) [Example 588]: the DC50 in series [1] is less than 10 nM. The AUC(0-inf) in series [2] is 5000 to 30000 ng·h/mL. In addition, in the series on 22RV1 cells, the 50% inhibitory concentration (IC50) is 13 nM.

The values are drawn from patent publication US20250051347A1, “BIFUNCTIONAL CHIMERIC HETEROCYCLIC COMPOUND AND USE THEREOF AS ANDROGEN RECEPTOR DEGRADER” (Hinova Pharmaceuticals, Inc., priority 2021, published 2025).
